Legend:
[1] = biological target: Free fatty acid receptor 1 (Homo sapiens, UniProt O14842); test: Agonist activity at human GPR40 expressed in HEK-EM 293 cells assessed as increase in intracellular calcium; assay type: functional, cell-based, HEK293
[2] = biological target: Free fatty acid receptor 1 (Homo sapiens, UniProt O14842, N244A); test: Agonist activity at human GPR40 N244A mutant expressed in HEK-EM 293 cells assessed as increase in intracellular calcium; assay type: functional, cell-based, HEK293
[3] = biological target: Free fatty acid receptor 1 (Homo sapiens, UniProt O14842, H86F); test: Agonist activity at human GPR40 H86F mutant expressed in HEK-EM 293 cells assessed as increase in intracellular calcium; assay type: functional, cell-based, HEK293
[4] = biological target: Free fatty acid receptor 1 (Homo sapiens, UniProt O14842, H137F); test: Agonist activity at human GPR40 H137F mutant expressed in HEK-EM 293 cells assessed as increase in intracellular calcium; assay type: functional, cell-based, HEK293
[5] = biological target: Free fatty acid receptor 1 (Homo sapiens, UniProt O14842, H86A); test: Agonist activity at human GPR40 H86A mutant expressed in HEK-EM 293 cells assessed as increase in intracellular calcium; assay type: functional, cell-based, HEK293
[6] = biological target: Free fatty acid receptor 1 (Homo sapiens, UniProt O14842, H137A); test: Agonist activity at human GPR40 H137A mutant expressed in HEK-EM 293 cells assessed as increase in intracellular calcium; assay type: functional, cell-based, HEK293
[7] = system: Free fatty acid receptor 1 (Homo sapiens), O14842 [V237F]; test: Agonist activity at human GPR40 V237F mutant expressed in HEK-EM 293 cells assessed as increase in intracellular calcium; assay type: functional, cell-based; details: HEK293
[8] = system: Free fatty acid receptor 1 (Homo sapiens), O14842 [R183A]; test: Agonist activity at human GPR40 R183A mutant expressed in HEK-EM 293 cells assessed as effect on intracellular calcium relative to wild type; assay type: functional, cell-based; details: HEK293
[9] = system: Free fatty acid receptor 1 (Homo sapiens), O14842 [R258A]; test: Agonist activity at human GPR40 R258A mutant expressed in HEK-EM 293 cells assessed as effect on intracellular calcium relative to wild type; assay type: functional, cell-based; details: HEK293
[10] = system: Free fatty acid receptor 1 (Homo sapiens), O14842 [R258K]; test: Agonist activity at human GPR40 R258K mutant expressed in HEK-EM 293 cells assessed as effect on intracellular calcium relative to wild type; assay type: functional, cell-based; details: HEK293
Chain of Free fatty acid receptor 1 (Homo sapiens), O14842 [R258K] (O14842 whole entry R258K): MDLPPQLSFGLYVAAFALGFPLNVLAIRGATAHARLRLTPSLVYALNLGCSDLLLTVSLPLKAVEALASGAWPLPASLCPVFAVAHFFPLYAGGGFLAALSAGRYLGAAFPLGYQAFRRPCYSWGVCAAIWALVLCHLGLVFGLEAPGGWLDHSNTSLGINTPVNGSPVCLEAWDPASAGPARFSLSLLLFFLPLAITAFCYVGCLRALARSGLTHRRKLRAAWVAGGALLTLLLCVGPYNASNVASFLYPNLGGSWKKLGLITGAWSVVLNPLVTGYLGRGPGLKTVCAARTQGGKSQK

Chain of Free fatty acid receptor 1 (Homo sapiens, UniProt O14842) (O14842 whole entry): as the sequence (O14842 whole entry R258K) above, with K258R counted along it
Chain of Free fatty acid receptor 1 (Homo sapiens, UniProt O14842, H137F) (O14842 whole entry H137F): as the sequence (O14842 whole entry R258K) above, with H137F, K258R counted along it
Chain of Free fatty acid receptor 1 (Homo sapiens), O14842 [V237F] (O14842 whole entry V237F): as the sequence (O14842 whole entry R258K) above, with V237F, K258R counted along it
Chain of Free fatty acid receptor 1 (Homo sapiens), O14842 [R258A] (O14842 whole entry R258A): as the sequence (O14842 whole entry R258K) above, with K258A counted along it
Chain of Free fatty acid receptor 1 (Homo sapiens, UniProt O14842, H86A) (O14842 whole entry H86A): as the sequence (O14842 whole entry R258K) above, with H86A, K258R counted along it
Chain of Free fatty acid receptor 1 (Homo sapiens, UniProt O14842, H86F) (O14842 whole entry H86F): as the sequence (O14842 whole entry R258K) above, with H86F, K258R counted along it
Chain of Free fatty acid receptor 1 (Homo sapiens), O14842 [R183A] (O14842 whole entry R183A): as the sequence (O14842 whole entry R258K) above, with R183A, K258R counted along it
Chain of Free fatty acid receptor 1 (Homo sapiens, UniProt O14842, H137A) (O14842 whole entry H137A): as the sequence (O14842 whole entry R258K) above, with H137A, K258R counted along it
Chain of Free fatty acid receptor 1 (Homo sapiens, UniProt O14842, N244A) (O14842 whole entry N244A): as the sequence (O14842 whole entry R258K) above, with N244A, K258R counted along it

EC50 [1]: 224 nM
Activity ([1]; HEK293): 223 nM
EC50 [2]: 17800 nM
EC50 [3]: 1200 nM
EC50 [4]: 6800 nM
EC50 [5]: 2200 nM
EC50 [6]: > 30000 nM
Fold change [7]: 1.1
Fold change [8]: > 100
Fold change [9]: > 100
Fold change [10]: > 100
SMILES: O=C(O)CCc1ccc(NCc2cccc(Oc3ccccc3)c2)cc1 [GW9508]
